# Results: patent publication US20240093148A1, “METHOD FOR DIFFERENTIATING HUMAN INDUCED PLURIPOTENT STEM CELLS INTO OLIGODENDROCYTES, AND KIT AND USE” (ALLIFE MEDICINE (ZHUHAI) LIMITED, priority 2021, published 2024)
# Test system: human induced pluripotent stem cells
# Assay: Induction of oligodendrocytes from iPSC in OPC mature culture medium with or without puerarin (immunofluorescence, cell count)
# Type: cell-based
# Experimental: Cleaned with DPBS three times, 3 minutes per time, and fixed with 4% PFA at room temperature for 40 minutes. Cleaned with DPBS three times, 3 minutes per time. 0.5% TritonX-100, perforation for 15 minutes. 5% BSA+0.15% TritonX-100, blocked at room temperature for 1 hour. Preparation of PBST: DPBS+1% BSA+0.15% TritonX-100. The primary antibody was added, stay overnight at 4 degrees. Recycled the primary antibody solution and cleaned it with PB ST three times for 10 minutes each time. The secondary antibody was added with a ratio of 1:500, stayed overnight at 4 degrees, away from light. Cleaned with PB ST three times for 10 minutes each time. 5 μg/ml DAPI for 2-3 minutes, away from light. Cleaned with DPBS and added 90% glycerol.
# OPC mature medium—containing puerarin: 95% DMEM/F-12 medium, 1% non-essential amino acid, 1% GlutaMAX-I, 0.1 mM 2-mercaptoethanol, 1% N2 supplement, 2% B27 supplement, 10 ng/mL PDGF-AA, 10 ng/mL IGF-1, 5 ng/mL HGF, 10 ng/mL NT3, 60 ng/mL T3, 100 ng/mL Biotin, 1 μM cAMP, 25 μM Puerarin, 25 μg/ml insulin. […]
# On the 37th day of cultivation, the percentage of oligodendrocytes in all cells was quantitatively counted, as shown in FIG. 3.
compound,measurement,setting,value
"O=c1c(-c2ccc(O)cc2)coc2c([C@@H]3O[C@H](CO)[C@@H](O)[C@H](O)[C@H]3O)c(O)ccc12 [puerarin, Puerarin]",percentage of oligodendrocytes in all cells,"day 37 of cultivation, 25 μM puerarin in OPC mature culture medium, control medium without puerarin about 21%",about 36%
same,increase of the number of oligodendrocytes,later stage of induction of iPSC to oligodendrocytes,30%
